# Source: patent US20100261679A1 (priority 2007, published 2010)
# Key:
# [1] = target: T1, cytoplasmic domain of the human CSF-1R (Homo sapiens, UniProt P07333); assay: In vitro kinase assay for CSF-1R (AlphaScreen); type: biochemical; conditions: tested at about 1 μM
# T1 construct: Recombinant protein corresponding to the cytoplasmic domain of the human CSF-1R; purchased Invitrogen Corporation, Carlsbad, Calif; U.S.A. PV3249
# T1 sequence (P07333 539-972 limits assumed): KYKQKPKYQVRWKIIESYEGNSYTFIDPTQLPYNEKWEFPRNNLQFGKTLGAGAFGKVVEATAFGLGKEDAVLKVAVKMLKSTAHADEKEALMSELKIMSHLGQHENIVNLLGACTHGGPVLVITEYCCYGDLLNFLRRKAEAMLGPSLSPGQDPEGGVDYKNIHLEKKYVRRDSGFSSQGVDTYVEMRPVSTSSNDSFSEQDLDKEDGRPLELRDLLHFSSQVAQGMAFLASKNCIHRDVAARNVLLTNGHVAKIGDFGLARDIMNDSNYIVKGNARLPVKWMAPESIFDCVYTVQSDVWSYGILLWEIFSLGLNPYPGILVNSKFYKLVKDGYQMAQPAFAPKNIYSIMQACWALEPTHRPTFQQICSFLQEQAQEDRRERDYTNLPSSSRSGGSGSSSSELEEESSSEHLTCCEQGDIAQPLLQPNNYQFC
# Protocol: The kinase activity of various protein tyrosine kinases can be measured by providing ATP and a suitable peptide or protein tyrosine-containing substrate, and assaying the transfer of phosphate moiety to the tyrosine residue. Recombinant protein corresponding to the cytoplasmic domain of the human CSF-1R was purchased from Invitrogen Corporation, Carlsbad, Calif. U.S.A. (#PV3249). For each assay, test compounds were serially diluted, starting at 25 μM with 3 fold dilutions, in DMSO in 384 well plates then mixed with an appropriate kinase reaction buffer consisting of 50 mM Hepes, 5 mM MgCl2, 10 mM MnCl2, 0.1% BSA, pH 7.5, 1.0 mM dithiothreitol, 0.01% Tween 80 plus […]. Kinase protein and an appropriate biotinylated peptide substrate at 50 nM were added to give a final volume of 20 μL, reactions were incubated for 2 hours at room temperature and stopped by the addition of 10 μL of 45 mM EDTA, 50 mM Hepes pH 7.5. Added to the stopped reaction mix was 30 μL of PT66 Alphascreen beads (Perkin Elmer, Boston, Mass., U.S.A.). The reaction was incubated overnight and read on the Envision (Perkin Elmer). Phosphorylated peptide product was measured with the AlphaScreen system (Perkin Elmer) using acceptor beads coated with anti-phosphotyrosine antibody PT66 and donor beads coated with streptavidin that emit a fluorescent signal at the 520-620 nm emission wave length if in close proximity. The concentration of each compound for 50% inhibition (IC50) was calculated by non-linear regression using XL Fit data analysis software.
# CSF-1R kinase was assayed in 50 mM Hepes pH 7.0, 5 mM MgCl2, 10 mM MnCl2, 1 mM DTT, 1 mg/mL BSA, 1.0 μM ATP, and 0.05 μM biotin-GGGGRPRAATF-NH2 (SEQ ID NO:2) peptide substrate. CSF-1R kinase was added at final concentration of 4 nM.
# cKIT = target: T2, cKIT (Homo sapiens, UniProt P10721); assay: Inhibition of cKIT kinase in an in vitro biochemical assay (alphascreen); conditions: tested at about 1 μM
# T2 construct: The kinase domain of cKIT was assayed in 50 mM Hepes; purchased Upstate 14-559
# T2 sequence (P10721 589-937 limits assumed): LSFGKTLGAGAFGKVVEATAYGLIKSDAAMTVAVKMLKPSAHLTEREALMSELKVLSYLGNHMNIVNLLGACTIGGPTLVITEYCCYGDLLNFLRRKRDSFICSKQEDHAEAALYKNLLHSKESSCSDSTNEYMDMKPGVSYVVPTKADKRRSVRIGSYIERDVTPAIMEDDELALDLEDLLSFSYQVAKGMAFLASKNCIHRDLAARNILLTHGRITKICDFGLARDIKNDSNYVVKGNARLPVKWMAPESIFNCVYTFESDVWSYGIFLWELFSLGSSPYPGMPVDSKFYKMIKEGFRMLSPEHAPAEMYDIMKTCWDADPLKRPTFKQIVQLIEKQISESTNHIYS
# Protocol: (§1) The IC50 values for the inhibition of RTKs were determined in the alphascreen format measuring the inhibition by compound of phosphate transfer to a substrate by the respective enzyme. Briefly, the respective RTK domain purchased as human recombinant protein (cKIT Upstate #14-559, PDGFRb Invitrogen #P3082) were incubated with serial dilutions of compound in the presence of substrate and ATP concentrations within 3 times the Km of the enzyme.
# (§2) The kinase domain of cKIT was assayed in 50 mM Hepes, pH=7.5, 5 mM MgCl2, 10 mM MnCl2, 1 mM DTT, 0.1% BSA with 0.06 uM biotinylated peptide substrate (GGLFDDPSYVNVQNL-NH2) and 15 μM ATP (ATP KM apparent =15 μM). The kinase domain of PDGFRβ was assayed in 50 mM Hepes, pH=7.5, 20 mM MgCl2, 1 mM DTT, 0.1% BSA with 0.1 μM biotinylated peptide substrate (GGLFDDPSYVNVQNL-NH2) and 10 μM ATP (ATP KM apparent=25 μM). Reactions were incubated at room temperature for 3 to 4 hr and stopped with buffer (20 mM EDTA, 0.01% Tween-20 for both PDGFRβ and cKIT). Alphascreen PY20 beads were added to the stopped cKIT reactions and PY20 Ab/Protein A Alphascreen beads were added to the PDGFRβ stopped reactions. Both reactions were incubated overnight and read on the Alphascreen reader. The concentration of compound for 50% inhibition (IC50) was calculated employing non-linear regression using XL-Fit data analysis software. As a control compound, staurosporine is run in every assay and a Z′>0.5 is required to validate results.
# PDGFRb = target: T3, PDGFRb (Homo sapiens, UniProt P09619); assay: Inhibition of PDGFRb kinase in an in vitro biochemical assay (alphascreen); conditions: tested at about 1 μM; read-out: PDGFR % inhibition at 1 μM
# T3 construct: The kinase domain of PDGFRβ was assayed in 50 mM Hepes; purchased Invitrogen P3082
# T3 sequence (P09619 600-962 limits assumed): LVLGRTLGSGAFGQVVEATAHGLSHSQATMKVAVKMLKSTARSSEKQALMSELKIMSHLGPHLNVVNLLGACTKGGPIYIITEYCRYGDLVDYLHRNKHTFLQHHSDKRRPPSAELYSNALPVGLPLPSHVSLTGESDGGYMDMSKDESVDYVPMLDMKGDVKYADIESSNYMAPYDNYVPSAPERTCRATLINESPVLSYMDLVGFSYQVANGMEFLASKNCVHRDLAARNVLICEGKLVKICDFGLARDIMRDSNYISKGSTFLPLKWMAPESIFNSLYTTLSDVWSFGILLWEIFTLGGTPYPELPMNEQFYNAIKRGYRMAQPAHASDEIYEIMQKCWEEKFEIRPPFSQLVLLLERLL
# Protocol: as §1, §2
SMILES,inhibition at 1 µM [1],inhibition at 1 µM (cKIT),inhibition at 1 µM (PDGFRb)
"CNC(=O)c1cc(Oc2ccc3nc(Nc4ccccc4OCCOC)ncc3c2)ccn1 [Example 69, 4-(2-(2-(2-methoxyethoxy)phenylamino)quinazolin-6-yloxy)-N-methylpicolinamide]",99%,17%,5%
"CNC(=O)c1cc(Oc2ccc3nc(Nc4ccccc4OCCO)ncc3c2)ccn1 [Example 70, 4-(2-(2-(2-hydroxyethoxy)phenylamino)quinazolin-6-yloxy)-N-methylpicolinamide]",95%,11%,13%
"CNC(=O)c1cc(Oc2ccc3nc(Nc4ccccc4OCCCO)ncc3c2)ccn1 [Example 71, 4-(2-(2-(3-hydroxypropoxy)phenylamino)quinazolin-6-yloxy)-N-methylpicolinamide]",90%,< 1%,11%
"CNC(=O)c1cc(Oc2ccc3nc(NC(=O)c4ccccc4)ncc3c2)ccn1 [Example 72, 4-(2-benzamidoquinazolin-6-yloxy)-N-methylpicolinamide]",98%,13%,43%
"OC(c1ccncc1)c1ccc2nc(NCC3CCCCC3)sc2c1 (stereo not drawn) [Example 76, (2-(cyclohexylmethylamino)benzo [d]thiazol-6-yl)(pyridin-4-yl)methanol]",65%,49%,27%
"c1cc(Cc2ccc3nc(NCC4CCCCC4)sc3c2)ccn1 [Example 77, N-(cyclohexylmethyl)-6-(pyridin-4-ylmethyl)benzo[d]thiazol-2-amine]",74%,10%,16%

# The next lines start with the values.
inhibition at 1 µM [1],inhibition at 1 µM (cKIT),inhibition at 1 µM (PDGFRb),SMILES
62%,8%,19%,"CNC(=O)c1cc(Oc2ccc3nc(N[C@@H]4CCCC[C@H]4N)ncc3c2)ccn1 [Example 73, 4-(2-((1R,2R)-2-aminocyclohexylamino)quinazolin-6-yloxy)-N-methylpicolinamide]"
100%,18%,< 1%,"CNC(=O)c1cc(Oc2ccc3nc(NC4CCCCC4)ncc3c2)ccn1 [Example 74, 4-(2-(cyclohexylamino)quinazolin-6-yloxy)-N-methylpicolinamide]"
100%,13%,34%,"CNC(=O)c1cc(Sc2ccc3nc(NCC4CCCCC4)sc3c2)ccn1 [Example 78, 4-(2-(cyclohexylmethylamino)benzo [d]thiazol-6-ylthio)-N-methylpicolinamide]"
97%,13%,< 1%,"CNC(=O)c1cc(Nc2ccc3nc(N[C@@H]4CCCC[C@H]4O)sc3c2)ccn1 [Example 79, 4-(2-((1R,2R)-2-hydroxycyclohexylamino)benzo[d]thiazol-6-ylamino)-N-methylpicolinamide]"
99%,39%,71%,"CNC(=O)c1cc(Oc2ccc3sc(N[C@@H]4CCCC[C@H]4O)nc3c2)ccn1 [Example 81, 4-(2-((1R,2R)-2-hydroxycyclohexylamino)benzo[d]thiazol-5-yloxy)-N-methylpicolinamide]"
99%,30%,30%,"CNC(=O)c1cc(Oc2ccc3nc(N[C@@H]4CCCC[C@H]4O)[nH]c3c2)ccn1 [Example 82, 4-(2-((1R,2R)-2-hydroxycyclohexylamino)-1H-benzo[d]imidazol-6-yloxy)-N-methylpicolinamide]"
100%,100%,100%,"CNC(=O)c1cc(Oc2ccc3nc(N[C@H](C)C4CCCCC4)[nH]c3c2)ccn1 [Example 83, (R)-4-(2-(1-cyclohexylethylamino)-1H-benzo[d]imidazol-6-yloxy)-N-methylpicolinamide]"
